According to patent US20250295619A1, “Use of Salvianolic Acid E in the Preparation of Drugs Targeting Senescent Cells, Inhibiting Tumors or Extending Lifespan” (Shanghai Institute of Nutrition and Health, Chinese Academy …, priority 2024, published 2025):
Entries after “also recorded” stand apart in the source; their conditions may differ.

Key:
[1] = test system: PSC27; test: SA-β-Gal staining of PSC27 cells (bleomycin-induced senescence, increasing SAE concentration); format: cell-based, human
Procedure: The P value of positive proportion of cells in these experimental groups for SAE at the concentrations of 100 μM, 200 μM, 400 μM, 800 μM, 1600 μM, 2000 μM and 3000 μM are statistically significant compared with the data at 0 μM.
(§1) To cause cell damage, 50 μg/mL bleomycin (bleomycin, BLEO) was added to the culture medium when PSC27 cells grew to 80% (abbreviated as PSC27-CTRL). After 12 hours of drug treatment, the cells were simply washed 3 times with PBS, left in the culture medium for 7-10 days, and then the subsequent experiments were performed.
Senescence-associated B-galactosidase (SA-β-Gal) staining was performed following a previously reported procedure (Debacq-Chainiaux, et. al., 2009). Briefly, cells in culture dishes were washed with PBS and fixed at room temperature. Cells were fixed in 2% formaldehyde and 0.2% glutaraldehyde for 3 minutes. SA-β-Gal was used for staining with freshly prepared staining solution overnight at 37° C. Images were taken on the next day and the percentage of positive cells per unit area was calculated.

[2] = test system: SASP factors; test: RNA-seq and GSEA expression profile of BLEO-induced senescent PSC27 cells; format: cell-based, human
Procedure: as §1
Whole-transcriptome sequencing was performed on the primary human prostate stromal cell line PSC27 under different treatment conditions. Total RNA samples were obtained from stromal cells. Their integrity was verified by Bioanalyzer 2100 (Agilent), RNA was sequenced by Illumina HiSeq X10, and gene expression levels were quantified by software package rsem (https://deweylab. github.io/rsem/). Briefly, rRNA was depleted from RNA samples with the RiboMinus Eukaryote Kit (Qiagen, Valencia, CA, USA); and according to the manufacturer's instructions, TruSeq Stranded Total RNA Preparation Kits (Illumina, San Diego, CA, USA) was used to construct a strand-specific RNA-seq library before deep sequencing.
Paired-end transcriptomic reads were mapped to a reference genome (GRCh38/hg38), and reference-annotation was performed from Gencode v27 using the Bowtie tool. Duplicate reads were identified using the picard Tools (1.98) script to mark duplicates (https://github. com/broadinstitute/picard), and only non-duplicate reads were retained. Reference splice junctions were provided by reference transcriptome (Ensembl Build 73). FPKM values were calculated with Cufflinks, and Cufflinks maximum likelihood estimation function was used to call differential gene expression. […]
Based on the data obtained from the preliminary analysis of RNA-seq, after analyzing and comparing each differentially expressed significant gene, the genes were sorted using the “wald statistics” obtained from DESeq2. […] DESeq2 independent filtering was based on the average of normalized read counts to select genes with very low expression levels. […]

With `O=C(/C=C/c1ccc(O)c(O)c1/C(=C\c1ccc(O)c(O)c1)C(=O)O[C@H](Cc1ccc(O)c(O)c1)C(=O)O)O[C@H](Cc1ccc(O)c(O)c1)C(=O)O` [SAE, salvianolic acid E] the “SAE concentration at which senescent cells begin to be eliminated” value ([1]; SA-β-Gal staining) was 200 µM, the “concentration at which the killing effect on senescent cells reaches a threshold” value ([1]; SA-β-Gal staining) was 2000 µM and the “killing effect on senescent cells” value ([1]; SAE increased to 3000 μM) was “not further enhanced”. The “expression of SASP factors in senescent cells after SAE treatment” value ([2]; BLEO-induced senescent PSC27) was “universally reduced; also recorded: generally decreased”, the “molecular signatures characterizing SASP expression or NF-κB activation (GSEA)” value ([2]; BLEO-induced senescent PSC27 after SAE) was “significant repression” and the “expression profile of senescent cells” value ([2]; RNA-seq, BLEO-induced senescent PSC27) was “significantly altered”.
